Experiment [1] deals with Poly [ADP-ribose] polymerase 2 (Homo sapiens, UniProt Q9UGN5). The experiment is described as follows: Biochemical (FP) Assay. As for the experimental part: (§1) PARP1 and PARP2 protein were expressed, purified, and diluted in assay buffer containing 50 mM Tris pH 8.0, 0.001% Triton X-100, 10 mM MgCI2, 150 mM NaCI to a final concentration of 20 nM.
Experiment [2] has as its target Poly [ADP-ribose] polymerase 1 (Homo sapiens, UniProt P09874). Nature of the experiment: Biochemical (FP) Assay. As for the experimental part: as §1

A value given as a limit tells only on which side of the number the result lay.

Poly [ADP-ribose] polymerase 1, sequence (P09874 whole entry): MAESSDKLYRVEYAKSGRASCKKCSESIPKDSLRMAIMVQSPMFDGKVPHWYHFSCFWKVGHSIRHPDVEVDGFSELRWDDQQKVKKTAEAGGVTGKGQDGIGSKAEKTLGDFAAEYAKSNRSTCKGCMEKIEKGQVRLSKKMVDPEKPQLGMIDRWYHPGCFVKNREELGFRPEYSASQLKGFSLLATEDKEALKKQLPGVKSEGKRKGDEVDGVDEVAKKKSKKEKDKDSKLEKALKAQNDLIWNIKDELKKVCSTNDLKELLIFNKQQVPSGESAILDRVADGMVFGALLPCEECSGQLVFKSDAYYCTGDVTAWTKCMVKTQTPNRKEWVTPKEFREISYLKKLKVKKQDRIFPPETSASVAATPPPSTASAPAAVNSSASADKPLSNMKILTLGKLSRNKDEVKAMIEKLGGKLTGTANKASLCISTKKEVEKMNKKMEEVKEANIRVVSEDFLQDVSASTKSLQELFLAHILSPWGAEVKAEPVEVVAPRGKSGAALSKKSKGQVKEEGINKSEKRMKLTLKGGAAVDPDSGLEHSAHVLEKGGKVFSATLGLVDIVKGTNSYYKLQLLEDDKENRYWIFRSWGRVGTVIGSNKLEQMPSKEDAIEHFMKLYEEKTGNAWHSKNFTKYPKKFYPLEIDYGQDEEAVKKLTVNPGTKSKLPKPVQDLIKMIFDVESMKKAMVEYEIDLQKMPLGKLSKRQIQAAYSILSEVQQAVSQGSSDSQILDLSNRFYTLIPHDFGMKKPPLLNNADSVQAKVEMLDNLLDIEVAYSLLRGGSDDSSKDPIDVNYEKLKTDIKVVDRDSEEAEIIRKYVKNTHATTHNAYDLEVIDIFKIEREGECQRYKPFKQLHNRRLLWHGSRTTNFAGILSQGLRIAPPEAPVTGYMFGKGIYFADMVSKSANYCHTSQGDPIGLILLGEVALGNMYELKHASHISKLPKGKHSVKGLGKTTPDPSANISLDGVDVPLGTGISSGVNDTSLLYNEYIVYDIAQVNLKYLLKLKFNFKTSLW
Poly [ADP-ribose] polymerase 2, sequence (Q9UGN5 whole entry): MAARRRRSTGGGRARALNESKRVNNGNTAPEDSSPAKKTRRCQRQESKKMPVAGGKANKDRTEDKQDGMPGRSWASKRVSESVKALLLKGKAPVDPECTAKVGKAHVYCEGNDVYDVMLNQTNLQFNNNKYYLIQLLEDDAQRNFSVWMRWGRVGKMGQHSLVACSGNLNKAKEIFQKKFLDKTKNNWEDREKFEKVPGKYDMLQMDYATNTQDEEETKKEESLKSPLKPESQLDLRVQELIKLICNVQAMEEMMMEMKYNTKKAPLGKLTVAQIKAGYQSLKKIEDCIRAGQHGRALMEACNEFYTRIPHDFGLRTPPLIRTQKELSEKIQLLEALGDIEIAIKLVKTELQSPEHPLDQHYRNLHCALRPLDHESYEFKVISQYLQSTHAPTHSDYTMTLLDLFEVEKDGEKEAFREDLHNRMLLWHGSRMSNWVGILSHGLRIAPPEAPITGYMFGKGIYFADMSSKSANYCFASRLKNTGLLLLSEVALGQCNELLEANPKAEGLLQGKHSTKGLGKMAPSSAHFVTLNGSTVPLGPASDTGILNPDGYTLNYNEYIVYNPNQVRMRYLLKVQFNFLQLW

Regarding `CNC(=O)c1ccc(N2CCN(Cc3ccc4c5c(c(=O)[nH]c4c3)CCO5)CC2)c(Cl)n1` [US11795173, Comp. Ex. 2], the half-maximal inhibitory concentration (IC50) (in general, the concentration that gives 50% inhibition) is more than 100000 nM in experiment [1] and 4 nM in experiment [2].
Turning to `CNC(=O)c1ccc(N2CCN(Cc3cc(F)c4c5c(c(=O)[nH]c4c3)COC5)CC2)c(F)n1` [US11795173, Comp. Ex. 3], the IC50 in experiment [1] was more than 100000 nM; in experiment [2], 4.3 nM.

The record behind these values is BindingDB's records for patent US11795173 (Xinthera, 2023).
